These results are taken from patent US10023593B2, “ALK kinase inhibitor, and preparation method and uses thereof” (BEIJING PEARL BIOTECHNOLOGY LIMITED LIABILITY COMPANY, priority 2014, dated 2018).

For one test, the target named is T1, Wild Type ALK kinase (Homo sapiens, UniProt Q9UM73).
T1 construct: purchased Sino-US Crown Bioscience, Inc. batch number ALK 20110607
The test can be described thus: HTRF KinEASE-TK assay, inhibitory activity on wild type ALK kinase. The test is classed as biochemical. The conditions noted are these: wild type ALK 1 ng/μl, substrate 1 μM, 30° C. 35 minutes, read-out: Inhibition on ALK kinases (wildtype), IC50. The method, boiled down: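 ALK kinase at 1 ng/μl and substrate at 1 μM were reacted with compound (1% DMSO) in buffer with 5 mM MgCl2 and 1 mM DTT for 35 min at 30 °C. HTRF detection used the 665/615 ratio, normalised to no-compound wells and to 10.4 μM LDK-378 wells. IC50 came from a concentration-response fit.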
A general note: TR-FRET usually uses a lanthanide donor and a delayed reading to cut background.

Another test has as its system NCI-H2228 cell line. The test can be described thus: CellTiter-Glo cell proliferation inhibition on NCI-H2228 cell line. Format: cell-based. As to conditions: Homo sapiens, NCI-H2228, 96 h, NCI-H2228 cells, 5000 cells/well, 4 days drug treatment. The method, boiled down:
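NCI-H2228 cells, 5000/well in RPMI-1640 + 10% FBS, treated with compounds 2 h after seeding (0.5% DMSO final) for 4 days at 37° C. Viability by CellTiter-Glo luminescence; inhibition relative to DMSO control, IC50 from curve fit.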
(ATP-based viability assays read luminescence as a measure of living cells.)

T1 sequence (Q9UM73 19-1620): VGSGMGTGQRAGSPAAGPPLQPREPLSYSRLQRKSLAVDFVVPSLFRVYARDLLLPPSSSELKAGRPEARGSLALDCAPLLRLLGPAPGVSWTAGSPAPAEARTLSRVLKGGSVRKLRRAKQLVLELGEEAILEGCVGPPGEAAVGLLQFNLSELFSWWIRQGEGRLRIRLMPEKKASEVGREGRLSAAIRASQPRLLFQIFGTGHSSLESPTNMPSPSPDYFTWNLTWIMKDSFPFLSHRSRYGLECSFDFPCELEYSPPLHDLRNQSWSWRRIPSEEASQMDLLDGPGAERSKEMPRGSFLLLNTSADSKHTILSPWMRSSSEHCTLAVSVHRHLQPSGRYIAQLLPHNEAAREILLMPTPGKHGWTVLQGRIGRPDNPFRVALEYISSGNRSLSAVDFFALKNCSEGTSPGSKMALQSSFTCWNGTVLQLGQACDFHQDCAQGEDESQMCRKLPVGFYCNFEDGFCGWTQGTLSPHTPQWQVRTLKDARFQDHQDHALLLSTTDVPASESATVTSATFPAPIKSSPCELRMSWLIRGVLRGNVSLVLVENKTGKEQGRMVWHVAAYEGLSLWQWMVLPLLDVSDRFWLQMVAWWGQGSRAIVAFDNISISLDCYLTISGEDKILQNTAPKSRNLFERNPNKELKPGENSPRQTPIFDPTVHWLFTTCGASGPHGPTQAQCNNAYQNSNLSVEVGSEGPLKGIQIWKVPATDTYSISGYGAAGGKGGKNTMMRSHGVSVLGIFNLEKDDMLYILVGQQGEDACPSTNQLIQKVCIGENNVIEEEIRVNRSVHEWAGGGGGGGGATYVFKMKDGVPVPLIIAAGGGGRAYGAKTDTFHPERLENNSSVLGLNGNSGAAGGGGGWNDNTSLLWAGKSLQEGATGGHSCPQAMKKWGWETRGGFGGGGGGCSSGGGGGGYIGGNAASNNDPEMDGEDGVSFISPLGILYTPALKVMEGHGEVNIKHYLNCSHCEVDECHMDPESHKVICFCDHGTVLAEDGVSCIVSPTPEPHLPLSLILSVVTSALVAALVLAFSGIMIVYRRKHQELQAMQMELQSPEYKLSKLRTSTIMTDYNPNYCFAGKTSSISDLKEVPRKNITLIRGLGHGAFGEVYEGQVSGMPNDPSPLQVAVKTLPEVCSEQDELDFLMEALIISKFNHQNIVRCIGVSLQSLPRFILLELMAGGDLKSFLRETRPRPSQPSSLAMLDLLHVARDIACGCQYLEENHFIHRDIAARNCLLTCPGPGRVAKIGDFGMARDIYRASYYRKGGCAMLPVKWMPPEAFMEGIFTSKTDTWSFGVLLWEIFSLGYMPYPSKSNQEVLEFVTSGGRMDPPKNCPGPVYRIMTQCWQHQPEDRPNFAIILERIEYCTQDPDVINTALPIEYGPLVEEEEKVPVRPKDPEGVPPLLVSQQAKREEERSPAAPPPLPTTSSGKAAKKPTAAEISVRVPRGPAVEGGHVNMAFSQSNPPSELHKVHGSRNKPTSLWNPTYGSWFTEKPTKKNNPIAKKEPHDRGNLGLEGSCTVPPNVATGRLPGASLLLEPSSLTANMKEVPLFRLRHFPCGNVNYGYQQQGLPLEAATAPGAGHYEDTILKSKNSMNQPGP

For orientation: IC50 means the midpoint of a concentration-inhibition curve. With `CC(C)Oc1cc(C2CCNCC2)ccc1Nc1ncc(Cl)c(Nc2cn(C)nc2S(=O)(=O)C(C)C)n1` [Final product 1, 5-chloro-N^2-[2-isopropoxy-4-(piperidin-4-yl)phenyl]-N^4-(3-isopropylsulfonyl-1-methyl-1H-pyrazol-4-yl)pyrimidin-2,4-diamine], the half-maximal inhibitory concentration (IC50) on Wild Type ALK kinase is 4 nM; in the test with NCI-H2228 cell line, 184 nM.
In the same order, the values of `Cc1cc(Nc2ncc(Cl)c(Nc3cn(C)nc3S(=O)(=O)C(C)C)n2)c(OC(C)C)cc1C1CCNCC1` [Final product 2] are 6 nM and 198 nM.
For `Cc1cc(Nc2ncc(Cl)c(Nc3cn(C)nc3S(=O)(=O)C(C)C)n2)c(OC(C)C)cc1C1CCNC1` (stereo not drawn) [Final product 3] the same measures were 4 nM and 364 nM.
For `Cc1cc(Nc2ncc(Cl)c(Nc3cn(C)nc3S(=O)(=O)C(C)C)n2)c(OC2CC2)cc1C1CCN(C)C1` (stereo not drawn) [Final product 53] the same measures were 3 nM and 133 nM.
On to `Cc1cc(Nc2ncc(Cl)c(Nc3cn(C)nc3S(=O)(=O)C(C)C)n2)c(OC2CC2)cc1C1CN(C)C1` [Final product 54], for which the IC50 on Wild Type ALK kinase turned out to be 3 nM; in the test with NCI-H2228 cell line it was 18 nM.
For `Cc1cc(Nc2ncc(Cl)c(Nc3cn(C)nc3S(=O)(=O)CC(C)C)n2)c(OC2CC2)cc1C1CN(C)C1` [Final product 55] the same measures were 4 nM and 181 nM.
As for `Cc1cc(Nc2ncc(Cl)c(Nc3cn(C4CC4)nc3S(=O)(=O)C(C)C)n2)c(OC2CC2)cc1C1CCN(C)CC1` [Final product 56], the results for the IC50 on Wild Type ALK kinase and in the test with NCI-H2228 cell line were 5 nM and 142 nM, respectively.
In the same order, the values of `Cc1cc(Nc2ncc(Cl)c(Nc3cn(C)nc3S(=O)(=O)CC(C)C)n2)c(OC2CC2)cc1C1CCN(C)CC1` [Final product 57] are 7 nM and 108 nM.
For `COC1CN(C)CCC1c1cc(OC2CC2)c(Nc2ncc(Cl)c(Nc3cn(C)nc3S(=O)(=O)C(C)C)n2)cc1C` (stereo not drawn) [Final product 58], the 50% inhibitory concentration (IC50) worked out at 4 nM at Wild Type ALK kinase and 55 nM in the test with NCI-H2228 cell line.
For `COCC1CC(c2cc(OC3CC3)c(Nc3ncc(Cl)c(Nc4cn(C)nc4S(=O)(=O)C(C)C)n3)cc2C)CCN1C` (stereo not drawn) [Final product 77] the same measures were 2 nM and 25 nM.
For `COCC1CC(c2cc(OC3CC3)c(Nc3ncc(Cl)c(Nc4cn(C)nc4S(=O)(=O)CC(C)C)n3)cc2C)CCN1C` (stereo not drawn) [Final product 79] the same measures were 3 nM and 62 nM.
For `Cc1cc(Nc2ncc(Cl)c(Nc3cn(C4CC4)nc3S(=O)(=O)C(C)C)n2)c(OC(C)C)cc1C1CCN(C)CC1` [Final product 81] the same measures were 11 nM and 190 nM.
As for `COCCN1CCC(c2cc(OC3CC3)c(Nc3ncc(Cl)c(Nc4cn(C)nc4S(=O)(=O)C(C)C)n3)cc2C)CC1` [Final product 82], the IC50 was found to be 4 nM on Wild Type ALK kinase and 43 nM in the test on NCI-H2228 cell line.
For `Cc1cc(Nc2ncc(Cl)c(Nc3cn(C)nc3S(=O)(=O)C(C)C)n2)c(OC2CC2)cc1C1CCN(C)CC1F` (stereo not drawn) [Final product 87] the same measures were 6 nM and 113 nM.
In the same order, the values of `Cc1cc(Nc2ncc(Cl)c(Nc3cn(C)nc3S(=O)(=O)C(C)C)n2)c(OC2CC2)cc1C1CCN(C)CC1(F)F` (stereo not drawn) [Final product 88] are 6 nM and 72 nM.
`Cc1cc(Nc2ncc(Cl)c(Nc3cn(C)nc3S(=O)(=O)C(C)C)n2)c(OC2CC2)cc1C1CCN(C)CC1C` (stereo not drawn) [Final product 90]: the half-inhibitory concentration (IC50) on Wild Type ALK kinase was found to be 1 nM; in the test with NCI-H2228 cell line, 45 nM.
As for `Cc1cc(Nc2ncc(Cl)c(Nc3cn(C)nc3S(=O)(=O)C(C)C)n2)c(OC2CC2)cc1C1CCC(NS(C)(=O)=O)CC1` (stereo not drawn) [Final product 205, N-(4-(4-(5-chloro-4-(3-(isopropylsulfonyl)-1-methyl-1H-pyrazol-4-amine)pyrimidin-2-amine)-5-cyclopropoxy-2-methylphenyl)cyclohexyl)methanesulfonamide], half-maximal inhibition in the test with NCI-H2228 cell line (IC50) required 151 nM.
